Reference: ChEMBL document CHEMBL1201862, “PubChem BioAssay data set” (2004)
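In this assay, cells in 96-well plates receive the compound at five concentrations for 48 hours. Endpoints are linearly interpolated between the surrounding concentrations. GI50 is the concentration that inhibits growth by half.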 The source made the active and inactive calls. Rule as the data show it: active = GI50 up to about 1.1 µM and inactive = higher.

Assays:
Test in all cases: DTP human tumour cell line panel, 48 h
IGROV-1 = test system: IGROV-1
SNB-75 = test system: SNB-75
SK-OV-3 = test system: SK-OV-3
SNB-19 = test system: SNB-19
CCRF-CEM = test system: CCRF-CEM
Malme-3M = test system: Malme-3M
SK-MEL-5 = test system: SK-MEL-5
HT-29 = test system: HT-29
NCI-H23 = test system: NCI-H23
OVCAR-8 = test system: OVCAR-8
DLD-1 = test system: DLD-1
M14 = test system: M14
EKVX = test system: EKVX
SK-MEL-2 = test system: SK-MEL-2
BT-549 = test system: BT-549
MDA-MB-435 = test system: MDA-MB-435
MCF7 = test system: MCF7
T47D = test system: T47D
Hs-578T = test system: Hs-578T
MDA-MB-231 = test system: MDA-MB-231

SMILES	GI50 (IGROV-1)	GI50 (SNB-75)	GI50 (SK-OV-3)	GI50 (SNB-19)	GI50 (CCRF-CEM)	GI50 (Malme-3M)	GI50 (SK-MEL-5)	GI50 (HT-29)	GI50 (NCI-H23)	GI50 (OVCAR-8)	GI50 (DLD-1)	GI50 (M14)	GI50 (EKVX)	GI50 (SK-MEL-2)	GI50 (BT-549)	GI50 (MDA-MB-435)	GI50 (MCF7)	GI50 (T47D)	GI50 (Hs-578T)	GI50 (MDA-MB-231)
CC1=C(C(=O)Nc2ccccc2)C(c2ccccc2Cl)C(C(=O)Nc2ccccc2)=C(C)N1	27.9 µM (inactive)	28.1 µM (inactive)	37.1 µM (inactive)	24.8 µM (inactive)	32 µM (inactive)	20 µM (inactive)	15.2 µM (inactive)	21 µM (inactive)	26.4 µM (inactive)	29.4 µM (inactive)	35.9 µM (inactive)	16.6 µM (inactive)	14.3 µM (inactive)	18 µM (inactive)	–	–	–	–	–	–
CC1=NN2C(c3ccc([N+](=O)[O-])cc3)=CSC2=NC(C)(C)C1	> 100 µM (inactive)	> 100 µM (inactive)	> 100 µM (inactive)	> 100 µM (inactive)	> 100 µM (inactive)	> 100 µM (inactive)	> 100 µM (inactive)	> 100 µM (inactive)	> 100 µM (inactive)	> 100 µM (inactive)	> 100 µM (inactive)	> 100 µM (inactive)	> 100 µM (inactive)	> 100 µM (inactive)	–	–	–	–	–	–
C=C1CCC2C(C)(CO)C(O)CCC2(C)C1CC(O)/C(=C/CO)C(=O)O (configuration not stated)	> 100 µM (inactive)	> 100 µM (inactive)	> 100 µM (inactive)	> 100 µM (inactive)	> 100 µM (inactive)	> 100 µM (inactive)	> 100 µM (inactive)	> 100 µM (inactive)	–	> 100 µM (inactive)	> 100 µM (inactive)	> 100 µM (inactive)	–	> 100 µM (inactive)	–	–	–	–	–	–
COc1ccc(C(N)=O)c(OC)c1OCc1ccccc1	> 100 µM (inactive)	> 100 µM (inactive)	> 100 µM (inactive)	> 100 µM (inactive)	> 100 µM (inactive)	–	> 100 µM (inactive)	> 100 µM (inactive)	9.51 µM (inactive)	> 100 µM (inactive)	> 100 µM (inactive)	> 100 µM (inactive)	> 100 µM (inactive)	> 100 µM (inactive)	–	–	–	–	–	–
O=C(Nc1ccccc1-c1nn(CN2CCNCC2)c(=S)n(CN2CCNCC2)c1=O)C(F)(F)F	22.3 µM (inactive)	22.6 µM (inactive)	20 µM (inactive)	21.6 µM (inactive)	17.1 µM (inactive)	17.9 µM (inactive)	17.3 µM (inactive)	23.4 µM (inactive)	17.9 µM (inactive)	20.6 µM (inactive)	16.5 µM (inactive)	16.9 µM (inactive)	14.2 µM (inactive)	19.4 µM (inactive)	–	–	–	–	–	–
CCC1=C(C)/C(=C/c2[nH]c(CBr)c(CC)c2C)N=C1CBr	18.5 µM (inactive)	29.6 µM (inactive)	19 µM (inactive)	16.4 µM (inactive)	2.51 µM (inactive)	20.7 µM (inactive)	16.8 µM (inactive)	12.5 µM (inactive)	14.6 µM (inactive)	7.23 µM (inactive)	12.4 µM (inactive)	16.5 µM (inactive)	21.7 µM (inactive)	22.2 µM (inactive)	–	–	–	–	–	–
O=C(CC1(O)C(=O)Nc2c(Cl)cccc21)c1ccccc1 (configuration not stated)	–	85.9 µM (inactive)	> 100 µM (inactive)	> 100 µM (inactive)	> 100 µM (inactive)	> 100 µM (inactive)	> 100 µM (inactive)	84.7 µM (inactive)	> 100 µM (inactive)	> 100 µM (inactive)	> 100 µM (inactive)	> 100 µM (inactive)	> 100 µM (inactive)	> 100 µM (inactive)	–	–	–	–	–	–
CCOc1ccc(OCC)c([P+](c2ccccc2)(c2ccccc2)c2ccccc2)c1	0.356 µM (active)	1.09 µM (active)	–	0.378 µM (active)	0.322 µM (active)	1.28 µM (inactive)	0.267 µM (active)	0.315 µM (active)	0.254 µM (active)	0.358 µM (active)	0.548 µM (active)	0.71 µM (active)	1.1 µM (active)	–	–	–	–	–	–	–
C/C=C/CC(S(=O)(=O)c1ccccc1)S(=O)(=O)c1ccccc1	> 100 µM (inactive)	32.7 µM (inactive)	> 100 µM (inactive)	> 100 µM (inactive)	87.1 µM (inactive)	–	> 100 µM (inactive)	> 100 µM (inactive)	> 100 µM (inactive)	> 100 µM (inactive)	> 100 µM (inactive)	> 100 µM (inactive)	> 100 µM (inactive)	> 100 µM (inactive)	–	–	–	–	–	–
CN(C)CC1CCC/C1=N/OC(=O)c1ccccc1 (configuration not stated)	> 100 µM (inactive)	> 100 µM (inactive)	> 100 µM (inactive)	–	> 100 µM (inactive)	–	> 100 µM (inactive)	> 100 µM (inactive)	> 100 µM (inactive)	> 100 µM (inactive)	> 100 µM (inactive)	> 100 µM (inactive)	–	> 100 µM (inactive)	–	–	–	–	–	–
CC12O[Te]34OC1(C)C(C)(O3)C2(C)O4	11.9 µM (inactive)	> 8.75 µM (inactive)	22 µM (inactive)	14.6 µM (inactive)	–	18.1 µM (inactive)	–	13.2 µM (inactive)	16.4 µM (inactive)	12.5 µM (inactive)	15.3 µM (inactive)	16.5 µM (inactive)	20.1 µM (inactive)	15.7 µM (inactive)	–	–	–	–	–	–
O=C(O)c1cc2c(ncc3c(=O)n(-c4ccccc4)[nH]c32)s1	> 100 µM (inactive)	–	> 100 µM (inactive)	> 10 µM (inactive)	> 100 µM (inactive)	> 100 µM (inactive)	–	> 100 µM (inactive)	> 100 µM (inactive)	> 100 µM (inactive)	> 100 µM (inactive)	> 100 µM (inactive)	> 100 µM (inactive)	> 100 µM (inactive)	–	–	–	–	–	–
COc1ccc2c3c1OC1C34CCN(C)C(C2)C4=CC(I)C1(OC)OC (configuration not stated)	8.71 µM (inactive)	19.6 µM (inactive)	15 µM (inactive)	16.2 µM (inactive)	1.32 µM (inactive)	7.21 µM (inactive)	12 µM (inactive)	7.66 µM (inactive)	7.41 µM (inactive)	4.09 µM (inactive)	–	14.3 µM (inactive)	14.4 µM (inactive)	15.6 µM (inactive)	21.6 µM (inactive)	4.12 µM (inactive)	5.08 µM (inactive)	16.3 µM (inactive)	37 µM (inactive)	18.5 µM (inactive)
CC1(C)N=C(N)N=C(N)N1c1cccc(OCc2cccc([N+](=O)[O-])c2)c1	7.87 µM (inactive)	> 57 µM (inactive)	> 100 µM (inactive)	11.5 µM (inactive)	5.4 µM (inactive)	> 53.1 µM (inactive)	4.86 µM (inactive)	6.03 µM (inactive)	7.26 µM (inactive)	99.8 µM (inactive)	–	51.8 µM (inactive)	> 78.3 µM (inactive)	> 64.3 µM (inactive)	> 53.1 µM (inactive)	17.7 µM (inactive)	34.1 µM (inactive)	38.3 µM (inactive)	> 100 µM (inactive)	> 53.8 µM (inactive)
